The text below walks through data of a melting point compilation (Tetko et al.; mined from patent text by program, amines drawn as free bases though some values may be those of a salt).

As a reminder, the melting point is the temperature of the solid-liquid transition.

Turning to `CCCn1nc2c(N)nc3ccccc3c2c1CCNC(=O)c1ccc(F)cc1`, the melting point is 198 to 199 °C. To `O=C1C(=O)N(CCCCN2CCN(C(c3ccccc3)c3ccccc3)CC2)c2ccccc21` belongs 127 to 129 °C; to `CCc1n[nH]c(CC)c1CCCCCCOc1cc(Cl)c(OC)cc1Cl`, 148 to 150 °C.

With `C=CCNC(=O)N1CC(Oc2cccc(C)c2)C1`, the melting point fell in the range of 95 to 96 °C. For the compound `CSc1nc(-c2ccc(O)cc2)n(C)n1`, the melting point lay in the range of 216 to 220 °C.

In turn, `N#C/C(=C\c1ccc(O)c(O)c1)C(=O)NCCCCNC(=O)/C(C#N)=C/c1ccc(O)c(O)c1` came in with a melting point of 283 °C. To `COc1ccc(C(OCC2OC(n3cc(C)c(=O)[nH]c3=O)CC2O)(c2ccccc2)c2ccc(OC)cc2)cc1` (stereo unspecified) belongs 124 to 126 °C; to `CC(C(=O)O)c1ccc2c(c1)C(=O)Cc1ccc(F)cc1S2` (stereo unspecified), 148 °C. `CCC(C)[C@H](NC(=O)OCC1CCCC1)C(=O)N[C@@H](Cc1ccccc1)C(=O)CSCc1ccco1` (stereo partly specified) returned a melting point of 77 to 78 °C. To `CC(=O)OCC1CC(Nc2cc(Cl)c(Cl)cc2[N+](=O)[O-])C(OC(C)=O)C1OC(C)=O` (stereo unspecified) belongs 128 to 130 °C; to `COc1cc(C=C[N+](=O)[O-])cc(OC)c1OC`, 116 to 118 °C; to `COC(=O)N1CCc2onc(O)c2CC1`, 127 to 128 °C.

`CCc1cc(C(=O)c2ccccc2Cl)c(-n2cnnc2CNS(=O)(=O)c2ccc3ccccc3c2)s1` came in with a melting point of 165 to 167 °C. As to `CNC(=O)Oc1ccc(NC(=O)C(Cl)(Cl)Cl)c(C)c1`, the melting point was in the range of 185 to 187 °C. The same measure for `COc1cc(OCc2cccnc2)ccc1/C=C/c1cc(/C=C/c2ccc3[nH]ccc3c2)n[nH]1`: 127 to 135 °C; for `O=C(O)C1=C(c2ccc3c(c2)OCO3)c2ccccc2S(=O)(=O)N1Cc1ccc2c(c1)OCO2`: 229 to 230 °C.

`COc1cc(C(=O)Cn2c(-c3nonc3N)nc3ccccc32)ccc1O` came in with a melting point of 265 °C. `ON=C1C2CCC1CN(Cc1ccccc1)C2`: the melting point was 92 to 95 °C. To `CC(C)(C)OC(=O)N1CCc2cc(OCc3ccccc3)c(OCc3ccccc3)cc2C1Cc1ccc(N)c(I)c1` (stereo unspecified) belongs 169 to 171 °C; to `CC(=O)n1c(=O)n(CCN2CCC(CC(=O)c3ccc(F)cc3)CC2)c2ccccc21`, 149 °C. The same measure for `O=C(OCC(Cl)(Cl)Cl)N1C2CCC1CC(Sc1ccccc1)C2` (stereo unspecified): 83 to 84.5 °C; for `O=C(NCc1ccc(F)cc1)c1cccnc1Oc1ccc(F)cc1`: 136 to 138 °C. The same measure for `C[C@@H](c1ccc(-c2ccc(=O)n(C)c2)cc1)N1CC[C@](CC(C)(C)O)(c2ccccc2)OC1=O`: 180 to 181 °C; for `CCCn1nc(-c2sc(C(=O)NC(C)C)nc2-c2ccccc2)ccc1=O`: 146 to 148 °C; for `O=Cc1ccc(-c2ccc(-c3ccco3)o2)o1`: 75 to 77 °C. Compound `CCCC(=O)OCC(=O)C1C(C)CC2C3=C(C(O)CC21C)C1(C)C=CC(=O)C=C1C(F)C3` (stereo unspecified) displayed a melting point of 112 °C. The same measure for `CCOC(=O)c1ccc2c(c1)S(=O)c1cc([N+](=O)[O-])ccc1-2` (stereo unspecified): 245 to 250 °C. To `COc1c(C2CC2c2ccc(NS(C)(=O)=O)cc2)cc(N2CCC(=O)NC2=O)cc1C(C)(C)C` (stereo unspecified) belongs 265 to 266 °C; to `C=C(c1cc(OC)c(O)c2c(Cc3ccccc3)cccc12)C(C)(C)C(=O)O`, 162 °C.

In the case of `CC(=O)C(=Cc1cc([N+](=O)[O-])cc([N+](=O)[O-])c1)C(C)=O`, the melting point fell in the range of 101 to 105 °C. `CC(C)(C)OC(=O)c1ccc(C=Cc2cnc3nc(N)nc(N)c3c2)cc1` returned a melting point of over 350 °C.

As for `Brc1ccccc1-c1c(Br)cccc1Br`, the melting point lay in the range of 95 to 97 °C. The same measure for `CC(C)(C)OC1CC(n2cnc3c(Cl)ncnc32)C2CC12COCc1ccccc1` (stereo unspecified): 112 to 113 °C; for `CC12Nc3ccccc3N1C(=O)c1ccccc12` (stereo unspecified): 182 °C. To `COC(=O)c1c(OCc2ccccc2)ccc2c1CC[C@@H](NC1CCC1)[C@@H]2O` (relative stereo) belongs 117 to 119 °C. Consider `CCOc1ccc(Nc2cc(C)nc3cn[nH]c23)cc1`, for which the melting point turned out to be 217 °C. The same measure for `CC(=O)OCC1CC(=O)NN=C1c1ccc2c(c1)CCC(=O)N2C` (stereo unspecified): 149 to 153 °C; for `Cc1cc(=O)[nH]nc1-c1ccccc1`: 125 to 126 °C. On to `CS(=O)(=O)Nc1cc2c(cc1Oc1ccc(F)cc1F)C(O)CC2` (stereo unspecified), for which the melting point was 119 °C. The same measure for `COc1ccc(OC)c(C=C2NC(=O)NC2=O)c1`: 250 to 252 °C. The same measure for `C=Cc1cccc(-n2cnc(-c3cnc4[nH]cc(C(=O)N[C@@H](C)C(C)(C)C)c4n3)c2)c1`: 253 to 257 °C; for `Cc1nonc1-n1cc(C(=O)O)c(=O)c2cc(F)c(Cl)nc21`: 242 to 247 °C; for `COc1ccc(C2=NN(C3CCN(C(=O)N4CCOCC4)CC3)C(=O)[C@@H]3CC=CC[C@H]23)cc1OC`: 184 to 185 °C. `CCOc1ccc(C2C(C(=O)c3ccc(C(C)C)cc3)=C(O)C(=O)N2c2ccc(C)nn2)cn1` (stereo unspecified) had a melting point of 274 to 276 °C. The same measure for `C=CCC1C(=O)N(c2ccccc2)N(c2ccccc2)C1=O`: 135 to 137 °C; for `CN(CCNc1ccc2c3c(nn2CCN)-c2c(OCc4ccccc4)ccc(OCc4ccccc4)c2C(=O)c13)Cc1ccccc1`: 169 to 172 °C; for `COc1cc2nc(Cl)n3ncnc3c2cc1OC`: 258 to 260 °C. The same measure for `COc1cc(C2=CCCCC2)c(Cl)cc1C(=O)N1Cc2ccc(C(=O)N(C)CC(O)CO)n2Cc2ccccc21` (stereo unspecified): 155 to 157 °C; for `NC(=O)Nc1ncc(-c2ccncc2)cn1`: over 250 °C; for `O=C(OCCO)c1ccc(Cl)c([N+](=O)[O-])c1`: 102 to 104 °C. The same measure for `CC(=O)OCN=C(O)c1cc(C(O)=NCOC(C)=O)c(C(=O)O)cc1C(=O)O`: 237 to 238 °C.

In turn, `CC1(C)COC(=S)N(Cc2ccccc2N)C1` had a melting point of 90.8 to 92.1 °C. To `O=C1OC(P(=O)(O)c2ccccc2)c2ccccc21` (stereo unspecified) belongs 230 to 233 °C; to `O=c1ncc(Br)cn1COCc1ccccc1`, 169 °C; to `COc1cc(COc2nn(C)cc2CO)ccc1OCc1nc(-c2ccco2)oc1C`, 132 to 133 °C.

With `CC(C)(CC(=O)Nc1ccc2oc(-c3ccc4ccc(Cl)cc4n3)cc2c1)C(=O)O`, the melting point lay in the range of 228 to 230 °C. The same measure for `Cc1cc(C)c(-c2ccc3c(=O)c(C(=O)O)cn(C4CC4)c3c2C)cn1`: 217 °C; for `CC(=O)Nc1ccc([N+](=O)[O-])c(C=O)c1`: 131 to 135 °C; for `N#Cc1cnc2cc3cc(O)c(O)cc3cc2c1Nc1ccc(Cl)cc1Cl`: over 260 °C.

In turn, `CCN1CCC(=O)N(c2cc(Cl)ccc2C)C1=S` gave a melting point of 142 to 145 °C. Consider `CC[C@H](CC(=O)NC(=O)OCc1ccccc1)Nc1ccc(C(F)(F)F)cc1`, for which the melting point amounted to 101 °C.
